In ChEMBL document CHEMBL5042489, “Inhibitors of the Hippo Pathway Kinases STK3/MST2 and STK4/MST1 Have Utility for the Treatment of Acute Myeloid Leukemia” (J Med Chem, 2022):
Activity calls are given as the source filed them. The rule behind the calls is not given here.

Columns and labels:
MOLM-13 [1] = experiment: Antiproliferation activity against human MOLM-13 cells incubated for 72 hrs by celltiter-glo assay; assay type: functional, cell-based
THP-1 = experiment: Antiproliferation activity against human THP-1 cells incubated for 72 hrs by celltiter-glo assay; assay type: functional, cell-based
[2] = molecular target: Leucine-rich repeat serine/threonine-protein kinase 2 (Homo sapiens, UniProt Q5S007); experiment: Displacement of K5 tracer from full length C-terminal NanoLuc fused human LRRK2 expressed in HEK293T cells incubated for 2 hrs by NanoBRET assay; assay type: cell-based
Mus musculus = experiment: In vivo inhibition of STK3/4 in C57BL/6 mouse assessed as decrease in Thr35phosphorylated-MOB1 protein level in liver at 10 mg/kg, ip administered for 1 hr by Western blotting analysis; assay type: functional, organism-based
[3] = Cmax in C57BL/6 mouse at 10 mg/kg, ip measured upto 24 hrs by LC-MS/MS analysis; assay type: ADME, organism-based; parameters: route intraperitoneal, dose 10 mg/kg, time <=24; details: in vivo
[4] = Tmax in C57BL/6 mouse at 10 mg/kg, ip measured upto 24 hrs by LC-MS/MS analysis; assay type: ADME, organism-based; details: in vivo
[5] = AUC (0 to t) in C57BL/6 mouse at 10 mg/kg, ip measured upto 24 hrs by LC-MS/MS analysis; assay type: ADME, organism-based; parameters: dose 10 mg/kg, time <=24; details: in vivo
[6] = Half life in C57BL/6 mouse at 10 mg/kg, ip measured upto 24 hrs by LC-MS/MS analysis; assay type: ADME, organism-based; details: in vivo
[7] = Inhibition of MOB1 phosphorylation in human MOLM-13 cells assessed as decrease in pMOB1 activity preincubated for 4 hrs followed by H2O2 addition for 2 hrs by Western blotting analysis; assay type: cell-based
[8] = molecular target: BMP-2-inducible protein kinase (Homo sapiens) (UniProt Q9NSY1); experiment: Inhibition of BMP2K (unknown origin) by NanoBRET intracellular kinase assay; assay type: cell-based; details: time 2.0 hrs
[9] = molecular target: T1, Serine/threonine-protein kinase STK11 (Homo sapiens) (UniProt Q15831); experiment: Inhibition of LKB1 (unknown origin) by NanoBRET intracellular kinase assay; assay type: cell-based; details: time 2.0 hrs
T1 sequence (whole entry): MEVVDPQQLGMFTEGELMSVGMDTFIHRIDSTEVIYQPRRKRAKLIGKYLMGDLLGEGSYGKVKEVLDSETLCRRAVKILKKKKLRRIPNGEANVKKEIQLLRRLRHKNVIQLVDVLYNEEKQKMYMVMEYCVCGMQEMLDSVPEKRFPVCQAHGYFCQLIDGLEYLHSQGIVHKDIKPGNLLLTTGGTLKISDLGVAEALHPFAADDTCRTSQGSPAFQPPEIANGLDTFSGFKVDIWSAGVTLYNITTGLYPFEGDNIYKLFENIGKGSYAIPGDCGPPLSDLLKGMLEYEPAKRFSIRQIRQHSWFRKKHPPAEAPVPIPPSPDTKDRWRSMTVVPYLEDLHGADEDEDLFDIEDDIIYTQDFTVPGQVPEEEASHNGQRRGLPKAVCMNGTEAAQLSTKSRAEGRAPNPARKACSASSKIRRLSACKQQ

[10] = molecular target: T2, Serine/threonine-protein kinase 3 (Homo sapiens) (UniProt Q13188); experiment: Inhibition of STK3 (unknown origin) by KdELECT assay
T2 sequence (whole entry): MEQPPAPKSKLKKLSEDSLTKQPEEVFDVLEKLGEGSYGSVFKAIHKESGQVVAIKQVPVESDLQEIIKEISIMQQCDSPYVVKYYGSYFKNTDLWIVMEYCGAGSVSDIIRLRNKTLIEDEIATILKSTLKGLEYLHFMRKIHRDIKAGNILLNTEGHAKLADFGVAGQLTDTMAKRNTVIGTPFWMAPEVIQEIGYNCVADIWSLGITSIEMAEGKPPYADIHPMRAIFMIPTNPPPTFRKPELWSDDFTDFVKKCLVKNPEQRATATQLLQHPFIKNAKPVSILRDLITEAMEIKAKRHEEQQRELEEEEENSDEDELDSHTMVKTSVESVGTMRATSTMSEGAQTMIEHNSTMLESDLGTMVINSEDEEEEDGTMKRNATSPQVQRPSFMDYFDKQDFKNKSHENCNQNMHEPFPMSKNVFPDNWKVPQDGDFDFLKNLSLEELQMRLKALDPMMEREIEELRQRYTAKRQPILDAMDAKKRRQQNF

[11] = molecular target: Protein kinase C theta type (Homo sapiens) (UniProt Q04759); experiment: Inhibition of wild type partial length human PRKCQ (L350 to S706 residues) expressed in bacterial expression system by KdELECT assay
[12] = molecular target: T3, Serine/threonine-protein kinase RIO3 (Homo sapiens) (UniProt O14730); experiment: Inhibition of wild type full length human RIOK3 (M1 to E519 residues) expressed in bacterial expression system by KdELECT assay
T3 sequence (whole entry): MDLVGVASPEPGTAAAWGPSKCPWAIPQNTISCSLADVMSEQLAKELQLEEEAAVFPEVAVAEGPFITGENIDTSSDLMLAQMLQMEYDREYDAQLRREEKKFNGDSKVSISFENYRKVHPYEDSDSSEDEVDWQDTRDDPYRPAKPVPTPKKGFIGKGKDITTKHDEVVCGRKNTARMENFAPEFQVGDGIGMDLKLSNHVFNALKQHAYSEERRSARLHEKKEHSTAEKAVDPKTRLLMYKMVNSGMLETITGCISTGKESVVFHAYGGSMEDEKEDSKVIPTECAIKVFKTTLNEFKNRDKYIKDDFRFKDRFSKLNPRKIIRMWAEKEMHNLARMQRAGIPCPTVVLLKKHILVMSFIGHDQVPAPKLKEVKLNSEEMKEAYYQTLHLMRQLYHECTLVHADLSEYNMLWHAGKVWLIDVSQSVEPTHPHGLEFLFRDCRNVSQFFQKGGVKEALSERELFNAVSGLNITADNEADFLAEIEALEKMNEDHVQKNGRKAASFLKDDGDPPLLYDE

OCI-AML-3 = experiment: Antiproliferation activity against human OCI-AML-3 cells incubated for 72 hrs by celltiter-glo assay; assay type: functional, cell-based
Kasumi 1 = experiment: Antiproliferation activity against human Kasumi 1 cells incubated for 72 hrs by celltiter-glo assay; assay type: functional, cell-based
SKNO-1 = experiment: Antiproliferation activity against human SKNO-1 cells incubated for 72 hrs by celltiter-glo assay; assay type: functional, cell-based
MV4-11 = experiment: Antiproliferation activity against human MV4-11 cells incubated for 72 hrs by celltiter-glo assay; assay type: functional, cell-based
[13] = molecular target: T4, Serine/threonine-protein kinase 4 (Homo sapiens, UniProt Q13043)
T4 sequence (Q13043 whole entry): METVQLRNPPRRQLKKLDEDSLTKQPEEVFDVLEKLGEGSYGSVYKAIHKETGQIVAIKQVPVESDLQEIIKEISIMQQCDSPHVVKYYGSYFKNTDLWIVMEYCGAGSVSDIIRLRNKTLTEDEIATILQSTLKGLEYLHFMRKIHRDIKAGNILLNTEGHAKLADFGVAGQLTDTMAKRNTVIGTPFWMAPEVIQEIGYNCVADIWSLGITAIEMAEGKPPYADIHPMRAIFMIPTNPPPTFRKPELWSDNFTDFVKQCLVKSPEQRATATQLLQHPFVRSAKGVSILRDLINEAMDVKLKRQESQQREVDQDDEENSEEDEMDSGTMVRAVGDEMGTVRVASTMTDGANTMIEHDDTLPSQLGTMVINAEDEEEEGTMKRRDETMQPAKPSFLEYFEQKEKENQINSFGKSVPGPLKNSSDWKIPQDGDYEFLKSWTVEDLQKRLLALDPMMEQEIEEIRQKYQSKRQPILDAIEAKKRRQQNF

[14] = molecular target: T5, Serine/threonine-protein kinase 3 (Homo sapiens, UniProt Q13188)
T5 sequence (Q13188 whole entry): T2 sequence (whole entry)

[15] = molecular target: T5, Serine/threonine-protein kinase 3; remark: listed apart in the source
Description: Displacement of K5 tracer from full length C-terminal NanoLuc fused human STK3 expressed in HEK293T cells incubated for 2 hrs by NanoBRET assay

[16] = molecular target: T4, Serine/threonine-protein kinase 4; remark: listed apart in the source
Description: Displacement of K5 tracer from full length C-terminal NanoLuc fused human STK4 expressed in HEK293T cells incubated for 2 hrs by NanoBRET assay

[17] = molecular target: T2, Serine/threonine-protein kinase 3 (Homo sapiens); experiment: Inhibition of recombinant N-terminal His6-tagged human STK3 (18 to 311 residues) expressed in Escherichia coli assessed as melting temperature at 20 uM by thermal shift assay
[18] = molecular target: T2, Serine/threonine-protein kinase 3 (Homo sapiens); experiment: Inhibition of STK3 in HEK293 cells assessed as increase in YAP/TAZ-TEAD activity at 10 uM incubated for 48 hrs by Dual-Glo luciferase assay; assay type: cell-based
[19] = Drug concentration in C57BL/6 mouse plasma at 20 mg/kg, ip measured after 30 mins by LC-MS/MS analysis; assay type: ADME, organism-based
[20] = Kinetic solubility of compound in PBS at pH 7.4; assay type: physicochemical; details: buffer
[21] = Permeability in human Caco-2 cells; assay type: ADME, cell-based
MOLM-13 [22] = experiment: Inhibition of MOB1 phosphorylation in human MOLM-13 cells assessed as decrease in pMOB1 activity at 1 uM preincubated for 4 hrs followed by H2O2 addition for 2 hrs by Western blotting analysis; assay type: cell-based; details: time 6.0 hrs
[23] = Drug concentration in C57BL/6 mouse liver at 10 mg/kg, ip administered for 2 hrs; assay type: ADME, organism-based; details: read-out: Ct
[24] = Drug concentration in C57BL/6 mouse liver at 10 mg/kg, ip administered for 3 hrs; assay type: ADME, organism-based; details: read-out: Ct
[25] = Drug concentration in C57BL/6 mouse liver at 10 mg/kg, ip administered for 1 hr; assay type: ADME, organism-based; details: read-out: Ct
[26] = molecular target: T6, Serine/threonine-protein kinase 4 (Homo sapiens) (UniProt Q13043); details: dose 20.0 µM
T6 sequence (whole entry): T4 sequence (Q13043 whole entry)
Description: Inhibition of recombinant N-terminal His6-tagged human STK4 (43 to 431 residues) expressed in Escherichia coli assessed as melting temperature at 20 uM by thermal shift assay (Rvb = 55 degreeC)

Chain of Leucine-rich repeat serine/threonine-protein kinase 2 (Q5S007 whole entry, the tested form may be a part): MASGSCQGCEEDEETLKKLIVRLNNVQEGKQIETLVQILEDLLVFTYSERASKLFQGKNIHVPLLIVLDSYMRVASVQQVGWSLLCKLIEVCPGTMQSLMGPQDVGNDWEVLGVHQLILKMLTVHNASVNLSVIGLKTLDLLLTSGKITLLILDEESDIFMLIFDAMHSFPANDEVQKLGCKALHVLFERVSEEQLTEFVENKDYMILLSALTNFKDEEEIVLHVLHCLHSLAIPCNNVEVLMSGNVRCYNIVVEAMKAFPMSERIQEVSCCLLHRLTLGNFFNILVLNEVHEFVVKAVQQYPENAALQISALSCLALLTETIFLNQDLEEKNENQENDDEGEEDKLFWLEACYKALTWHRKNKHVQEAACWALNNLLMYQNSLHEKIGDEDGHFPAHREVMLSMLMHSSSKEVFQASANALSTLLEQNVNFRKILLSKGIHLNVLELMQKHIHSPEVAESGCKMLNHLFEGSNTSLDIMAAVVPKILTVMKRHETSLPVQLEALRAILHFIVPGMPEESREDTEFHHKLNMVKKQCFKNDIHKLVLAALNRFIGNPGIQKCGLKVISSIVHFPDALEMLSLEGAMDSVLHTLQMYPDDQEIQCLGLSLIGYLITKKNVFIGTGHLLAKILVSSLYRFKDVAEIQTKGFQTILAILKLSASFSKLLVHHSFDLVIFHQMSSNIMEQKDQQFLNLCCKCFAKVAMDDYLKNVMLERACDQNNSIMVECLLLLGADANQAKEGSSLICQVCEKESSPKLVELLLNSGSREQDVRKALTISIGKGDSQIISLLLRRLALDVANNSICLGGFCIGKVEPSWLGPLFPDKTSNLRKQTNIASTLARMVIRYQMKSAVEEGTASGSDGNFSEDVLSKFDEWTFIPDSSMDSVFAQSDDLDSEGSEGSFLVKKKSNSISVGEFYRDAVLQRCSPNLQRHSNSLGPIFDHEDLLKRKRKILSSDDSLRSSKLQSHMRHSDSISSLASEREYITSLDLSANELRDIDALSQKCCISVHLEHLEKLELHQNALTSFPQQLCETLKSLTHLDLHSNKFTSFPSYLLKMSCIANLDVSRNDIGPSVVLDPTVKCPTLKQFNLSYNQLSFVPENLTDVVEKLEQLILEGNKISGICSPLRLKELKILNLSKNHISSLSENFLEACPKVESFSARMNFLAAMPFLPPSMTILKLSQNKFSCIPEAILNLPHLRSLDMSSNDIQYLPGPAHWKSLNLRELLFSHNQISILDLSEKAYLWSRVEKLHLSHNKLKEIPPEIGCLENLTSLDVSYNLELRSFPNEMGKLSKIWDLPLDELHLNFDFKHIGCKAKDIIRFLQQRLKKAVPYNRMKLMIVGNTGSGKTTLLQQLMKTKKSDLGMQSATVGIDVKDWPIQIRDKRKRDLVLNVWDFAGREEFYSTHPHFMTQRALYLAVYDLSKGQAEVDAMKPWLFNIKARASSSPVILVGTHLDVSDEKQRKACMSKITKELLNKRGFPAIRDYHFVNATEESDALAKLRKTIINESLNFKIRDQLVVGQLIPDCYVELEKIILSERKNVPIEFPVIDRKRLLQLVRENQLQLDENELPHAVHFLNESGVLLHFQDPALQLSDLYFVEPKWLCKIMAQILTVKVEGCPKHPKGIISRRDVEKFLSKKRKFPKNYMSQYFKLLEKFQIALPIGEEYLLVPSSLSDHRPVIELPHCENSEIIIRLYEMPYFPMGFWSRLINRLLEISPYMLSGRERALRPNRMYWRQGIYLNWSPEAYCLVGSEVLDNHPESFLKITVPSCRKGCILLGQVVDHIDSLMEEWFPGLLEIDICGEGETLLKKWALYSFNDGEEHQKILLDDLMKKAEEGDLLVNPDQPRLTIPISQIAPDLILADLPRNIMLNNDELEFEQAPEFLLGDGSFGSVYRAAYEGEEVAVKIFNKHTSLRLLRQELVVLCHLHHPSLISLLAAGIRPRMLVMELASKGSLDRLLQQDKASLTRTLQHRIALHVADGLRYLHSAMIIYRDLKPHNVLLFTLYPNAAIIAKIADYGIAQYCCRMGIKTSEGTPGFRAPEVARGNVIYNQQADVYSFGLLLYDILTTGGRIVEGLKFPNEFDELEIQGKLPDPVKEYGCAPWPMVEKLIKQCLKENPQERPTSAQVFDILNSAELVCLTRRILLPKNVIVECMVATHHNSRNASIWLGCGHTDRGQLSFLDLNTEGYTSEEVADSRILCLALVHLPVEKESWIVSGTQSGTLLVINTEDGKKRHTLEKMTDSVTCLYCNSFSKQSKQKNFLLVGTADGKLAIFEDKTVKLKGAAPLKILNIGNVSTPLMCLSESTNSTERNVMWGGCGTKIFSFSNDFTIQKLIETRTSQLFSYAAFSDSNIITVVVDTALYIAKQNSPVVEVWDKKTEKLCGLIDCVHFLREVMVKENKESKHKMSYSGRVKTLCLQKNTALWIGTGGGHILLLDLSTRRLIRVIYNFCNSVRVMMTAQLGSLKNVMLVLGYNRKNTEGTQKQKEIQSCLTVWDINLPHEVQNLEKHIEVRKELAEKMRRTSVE
Chain of BMP-2-inducible protein kinase (Homo sapiens) (Q9NSY1 whole entry, looked up): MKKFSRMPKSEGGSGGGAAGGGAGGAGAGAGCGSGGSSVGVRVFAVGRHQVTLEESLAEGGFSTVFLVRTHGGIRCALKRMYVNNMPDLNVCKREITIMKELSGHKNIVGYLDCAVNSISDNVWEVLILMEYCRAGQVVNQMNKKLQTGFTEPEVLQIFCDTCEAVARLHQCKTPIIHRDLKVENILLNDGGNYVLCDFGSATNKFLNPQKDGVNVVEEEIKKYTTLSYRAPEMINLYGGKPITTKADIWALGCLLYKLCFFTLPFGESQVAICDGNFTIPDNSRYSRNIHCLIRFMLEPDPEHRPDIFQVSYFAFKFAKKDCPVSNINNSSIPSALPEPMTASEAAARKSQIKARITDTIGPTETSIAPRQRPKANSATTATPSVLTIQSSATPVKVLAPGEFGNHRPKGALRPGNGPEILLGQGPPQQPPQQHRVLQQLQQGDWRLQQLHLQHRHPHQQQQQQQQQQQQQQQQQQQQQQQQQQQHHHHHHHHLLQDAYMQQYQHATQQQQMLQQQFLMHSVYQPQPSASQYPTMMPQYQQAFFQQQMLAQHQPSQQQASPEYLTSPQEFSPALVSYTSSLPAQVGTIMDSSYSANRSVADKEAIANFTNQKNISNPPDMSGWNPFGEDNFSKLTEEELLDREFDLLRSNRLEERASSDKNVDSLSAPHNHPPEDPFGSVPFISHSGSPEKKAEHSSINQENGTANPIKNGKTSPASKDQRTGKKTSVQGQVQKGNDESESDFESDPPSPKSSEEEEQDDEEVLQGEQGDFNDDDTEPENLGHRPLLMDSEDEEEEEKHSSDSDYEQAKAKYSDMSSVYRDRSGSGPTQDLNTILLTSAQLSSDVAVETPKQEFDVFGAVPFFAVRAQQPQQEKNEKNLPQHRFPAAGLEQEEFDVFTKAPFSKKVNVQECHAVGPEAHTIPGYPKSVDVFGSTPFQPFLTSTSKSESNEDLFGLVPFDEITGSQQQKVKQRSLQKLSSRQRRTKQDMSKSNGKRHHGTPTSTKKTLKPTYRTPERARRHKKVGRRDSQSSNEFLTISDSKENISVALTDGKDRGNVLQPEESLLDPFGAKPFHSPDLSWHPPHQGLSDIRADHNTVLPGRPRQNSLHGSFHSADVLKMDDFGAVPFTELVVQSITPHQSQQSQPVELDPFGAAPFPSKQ
Chain of Protein kinase C theta type (Homo sapiens) (Q04759 whole entry, looked up, the tested form may be a part): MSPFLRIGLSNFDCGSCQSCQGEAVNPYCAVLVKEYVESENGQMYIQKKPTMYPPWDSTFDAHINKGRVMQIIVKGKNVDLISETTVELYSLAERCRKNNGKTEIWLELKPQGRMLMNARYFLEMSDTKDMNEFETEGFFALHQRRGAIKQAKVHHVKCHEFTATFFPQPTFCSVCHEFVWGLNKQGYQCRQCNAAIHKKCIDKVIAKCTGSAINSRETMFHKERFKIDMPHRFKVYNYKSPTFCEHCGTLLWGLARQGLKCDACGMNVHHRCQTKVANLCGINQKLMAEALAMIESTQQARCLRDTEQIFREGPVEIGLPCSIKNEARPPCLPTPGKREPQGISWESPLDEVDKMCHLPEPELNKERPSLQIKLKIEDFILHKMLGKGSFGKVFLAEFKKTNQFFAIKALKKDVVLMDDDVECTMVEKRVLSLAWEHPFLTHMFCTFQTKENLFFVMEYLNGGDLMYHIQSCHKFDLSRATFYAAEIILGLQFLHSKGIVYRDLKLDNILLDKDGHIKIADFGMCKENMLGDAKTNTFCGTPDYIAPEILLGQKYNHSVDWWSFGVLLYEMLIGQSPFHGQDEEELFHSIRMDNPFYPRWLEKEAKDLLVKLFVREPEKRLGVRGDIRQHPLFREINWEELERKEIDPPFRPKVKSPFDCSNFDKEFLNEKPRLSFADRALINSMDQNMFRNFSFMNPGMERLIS

SMILES | Activity (THP-1) | IC50 [2] [µM] | inhibition (Mus musculus) | Cmax [3] [µM] | Tmax [4] [min] | AUCt [5] [µM·h] | t1/2 [6] [min] | inhibition [8] | inhibition [9] | inhibition [10] | inhibition [11] | inhibition [12] | Activity (OCI-AML-3) | Activity (Kasumi 1) | Activity (SKNO-1) | IC50 [13] [µM] | IC50 [14] [µM] | IC50 [15] [µM] | IC50 [16] [µM] | inhibition [18] | further results
CC(=O)NC1CCN(c2ncnc3[nH]cc(-c4cccc(Cl)c4)c23)CC1 | Dose-Dependent Effect | 1.39 | Active | 11.8 | 15 | 8.1 | 318 | inactive | inactive | Active | Active | Active | Dose-Dependent Effect | Dose-Dependent Effect | Dose-Dependent Effect | 0.026 | 0.036 | 0.139 | 0.122 |  | IC50 (MOLM-13 [1]; MOLM-13, 72 h): 5.8 µM; IC50 [7]: 0.413 µM; IC50 (MV4-11; MV4-11, 72 h): 3.7 µM
OC1CCN(c2ncnc3[nH]cc(-c4cccc(Cl)c4)c23)CC1 | Dose-Dependent Effect | 1.34 | Active | 5.8 | 15 | 4.3 | 594 | inactive | inactive | Active | Active | Active | Dose-Dependent Effect | Dose-Dependent Effect | Dose-Dependent Effect | 0.08 | 0.127 | 0.433 | 0.25 | Active | Activity (MOLM-13 [1]): Dose-Dependent Effect; ΔTm [17]: > 5.2 °C; concentration at 0.5 h [19]: 11.6 µM; Kinetic_solubility [20]: 189 µM; permeability [21]: Permeable; Activity (MV4-11): Dose-Dependent Effect; inhibition (MOLM-13 [22]): Active
NC(=O)c1cccc(-c2c[nH]c3ncnc(N4CCOCC4)c23)c1 |  | 2.36 | Active | 11.9 | 30 | 9.5 | 42 |  |  |  |  |  |  |  |  |  | 0.233 | 0.303 |  | Active | concentration at 0.5 h [19]: 15.9 µM; concentration at 2 h [23]: 2.5 µM; concentration at 3 h [24]: 1.2 µM; concentration at 1 h [25]: 28 µM; Tm [26]: 63.3 °C
